By IC50 is commonly meant the concentration that gives 50% inhibition.

Like-named read-outs stand apart in the source and are kept apart here.

For 14 compounds, IC50 results are on record in patent publication US20230203060A1 (GENFLEET THERAPEUTICS (SHANGHAI) INC., priority 2020, published 2023).

Common to all, as to type: cell-based, human
The test system of test [1] is KRAS G12C mutant MIA PaCa-2 cells. Put plainly: Cell proliferation inhibition experiment, 3D spheroid, CellTiter-Glo, MIA PaCa-2. Particulars: 3D cell model in 384-well spheroid plate, 5 days, CellTiter-Glo, read-out: MIA-PaCa2 IC50. A digest of the protocol: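 200 MIA PaCa-2 cells/well grown overnight as 3D spheroids, then exposed to 3.16-fold compound dilutions (0.1% DMSO final) for 5 days. Viability read by CellTiter-Glo luminescence; inhibition calculated against DMSO and medium-only controls, and IC50 fitted by four-parameter model.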

Test [2] concerns A549 cells (KRAS G12S mutant). The experiment in a line: Cell proliferation inhibition experiment, 3D spheroid, CellTiter-Glo, A549. The conditions noted are these: A549 (KRAS G12S mutant) 3D spheroid, 5 days with compound, CellTiter-Glo, read-out: A549 IC50. In short, it runs like this:
(§1)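 Luminescence (CellTiter-Glo, 30 min incubation) was read after 5 days of compound treatment of overnight-formed spheroids of 800 H358 or 400 A549 cells in 2% FBS medium. Inhibition relative to DMSO and blank controls was fitted with a four-parameter model to yield IC50.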
A general note: Cellular ATP, detected with luciferase, serves as a proxy for viable cell number.

Test [3] deals with KRAS G12C mutant NCI-H358 cells. Put plainly: Cell proliferation inhibition experiment, 3D spheroid, CellTiter-Glo, NCI-H358. The conditions noted are these: NCI-H358 (KRAS G12C mutant) 3D spheroid, 5 days with compound, CellTiter-Glo, read-out: H358 IC50. In short, it runs like this: as §1
Where [4] appears, read: Homo sapiens, MIA PaCa-2, 120 h.

For `C=CC(=O)N1CCN2C(=O)c3c(-c4ccncc4)nc(-c4c(O)cccc4F)c(Cl)c3OC[C@H]2C1` [Z54], the IC50 in test [1] (setting [4]) is 169 nM; in test [2] (Homo sapiens, A549, 120 h), above 30000 nM; in test [3] (Homo sapiens, NCI-H358, 120 h), 124 nM.
As for `C=CC(=O)N1CCN2C(=O)c3c(-c4c(F)cccc4OC)nc(-c4c(O)cccc4F)c(Cl)c3OC[C@H]2C1` [Z55, (6aR)-8-acryloyl-4-chloro-3-(2-fluoro-6-hydroxyphenyl)-1-(2-fluoro-6-methoxyphenyl)-6,6a,7,8,9,10-hexahydro-12H-pyrazino[2,1-c]pyrido[3,4-f]oxazepin-12-one], the 50% inhibitory concentration (IC50) was 361 nM in test [1], above 1000 nM in test [2] and 134 nM in test [3].
In the case of `C=CC(=O)N1CCN2C(=O)c3c(N4CCN(C)CC45CC5)nc(-c4c(O)cccc4F)c(Cl)c3OC[C@H]2C1` [Z57, (6aR)-8-acryloyl-4-chloro-3-(2-fluoro-6-hydroxyphenyl)-1-(7-methyl-4,7-diazaspiro[2.5]octan-4-yl)-6,6a,7,8,9,10-hexahydro-12H-pyrazino[2,1-c]pyrido[3,4-f][1,4]oxazepin-12-one], the half-inhibitory concentration (IC50) in test [1] (setting [4]) was 118 nM; in test [2] (Homo sapiens, A549, 120 h), above 30000 nM; in test [3] (Homo sapiens, NCI-H358, 120 h) it was 134 nM.
Consider `C=CC(=O)N1CCN2C(=O)c3c(N4CCCC45CCOC5)nc(-c4c(O)cccc4F)c(Cl)c3OC[C@H]2C1` (stereo partly drawn) [Z58, (6aR)-8-acryloyl-4-chloro-3-(2-fluoro-6-hydroxyphenyl)-1-(7-oxa-1-azaspiro[4.4]nonan-1-yl)-6,6a,7,8,9,10-hexahydro-12H-pyrazino[2,1-c]pyrido[3,4-f][1,4]oxazepin-12-one], for which the half-maximal inhibitory concentration (IC50) in test [1] (setting [4]) is 237 nM; in test [2] (Homo sapiens, A549, 120 h), above 5000 nM; in test [3] (Homo sapiens, NCI-H358, 120 h), 145 nM.
As for `C=CC(=O)N1CCN2C(=O)c3c(N4CCC5(CCOC5)C4)nc(-c4c(O)cccc4F)c(Cl)c3OC[C@H]2C1` (stereo partly drawn) [Z59, (6aR)-8-acryloyl-4-chloro-3-(2-fluoro-6-hydroxyphenyl)-1-(2-oxa-7-azaspiro[4.4]nonan-7-yl)-6,6a,7,8,9,10-hexahydro-12H-pyrazino[2,1-c]pyrido[3,4-f][1,4]oxazepin-12-(6aH)-one], the half-inhibitory concentration (IC50) is 27 nM in test [1], above 30000 nM in test [2] and 19 nM in test [3].
As to `C=CC(=O)N1CCN2C(=O)c3c(N4CC5CN(C)CC5C4)nc(-c4c(O)cccc4F)c(Cl)c3OC[C@H]2C1` (stereo partly drawn) [Z60, (6aR)-8-acryloyl-4-chloro-3-(2-fluoro-6-hydroxyphenyl)-1-(5-methylhexahydropyrrolo[3,4-c]pyrrol-2 (1H)-yl)-6,6a,7,8,9,10-hexahydro-12H-pyrazino[2,1-c]pyrido[3,4-f][1,4]oxazepin-12-one], the IC50 in test [1] (setting [4]) is 94 nM; in test [2] (Homo sapiens, A549, 120 h), above 30000 nM; in test [3] (Homo sapiens, NCI-H358, 120 h), 125 nM.
For `C=CC(=O)N1CCN2C(=O)c3c(N4C[C@H]5CC[C@@H](C4)O5)nc(-c4c(O)cccc4F)c(Cl)c3OC[C@H]2C1` [Z62, (6aR)-8-acryloyl-4-chloro-1-((1R,5S)-8-oxa-3-azabicyclo[3.2.1]octan-3-yl)-3-(2-fluoro-6-hydroxyphenyl)-6,6a,7,8,9,10-hexahydro-12H-pyrazino[2,1-c]pyrido[3,4-f][1,4]oxazepin-12-one], the IC50 in test [1] (setting [4]) is 29 nM; in test [2] (Homo sapiens, A549, 120 h), above 10000 nM; in test [3] (Homo sapiens, NCI-H358, 120 h), 23 nM.
Regarding `C=CC(=O)N1CCN2C(=O)c3c(O[C@@H]4CCN(C)C4)nc(-c4c(O)cccc4F)c(Cl)c3OC[C@H]2C1` [Z64, (6aR)-8-acryloyl-4-chloro-3-(2-fluoro-6-hydroxyphenyl)-1-(((R)-1-methylpyrrolidin-3-yl)oxy)-6,6a,7,8,9,10-hexahydro-12H-pyrazino[2,1-c]pyrido[3,4-f][1,4]oxazepin-12-one], the IC50 in test [1] (setting [4]) is 268 nM; in test [2] (Homo sapiens, A549, 120 h), above 30000 nM; in test [3] (Homo sapiens, NCI-H358, 120 h) it was 287 nM.
Regarding `C=CC(=O)N1CCN2C(=O)c3c(O[C@H]4CCN(C)C4)nc(-c4c(O)cccc4F)c(Cl)c3OC[C@H]2C1` [Z65, (6aR)-8-acryloyl-4-chloro-3-(2-fluoro-6-hydroxyphenyl)-1-(((S)-1-methylpyrrolidin-3-yl)oxy)-6,6a,7,8,9,10-hexahydro-12H-pyrazino[2,1-c]pyrido[3,4-f][1,4]oxazepin-12-one], the IC50 in test [1] (setting [4]) was 38 nM; in test [2] (Homo sapiens, A549, 120 h) it was above 30000 nM; in test [3] (Homo sapiens, NCI-H358, 120 h), 51 nM.
With `C=CC(=O)N1CCN2C(=O)c3c(N4CCOCC4(C)C)nc(-c4c(O)cccc4F)c(Cl)c3OC[C@H]2C1` [Z70, (6aR)-8-acryloyl-4-chloro-1-(3,3-dimethylmorpholino)-3-(2-fluoro-6-hydroxyphenyl)-6,6a,7,8,9,10-hexahydro-12H-pyrazino[2,1-c]pyrido[3,4-f][1,4]oxazepin-12-one], the half-maximal inhibitory concentration (IC50) in test [1] (setting [4]) was 52 nM; in test [2] (Homo sapiens, A549, 120 h), above 10000 nM; in test [3] (Homo sapiens, NCI-H358, 120 h), 25 nM.
Regarding `C=CC(=O)N1CCN2Cc3c(NC(C)(C)C)nc(-c4c(O)cccc4F)c(Cl)c3OC[C@H]2C1` [Z71, 1-((6aR)-1-(tert-butylamino)-4-chloro-3-(2-fluoro-6-hydroxyphenyl)-6a,7,9,10-tetrahydro-12H-pyrazino[2,1-c]pyrido[3,4-f][1,4]oxazepin-8(6H)-yl)prop-2-en-1-one], the IC50 in test [1] (setting [4]) is 467 nM; in test [2] (Homo sapiens, A549, 120 h), above 10000 nM; in test [3] (Homo sapiens, NCI-H358, 120 h), 275 nM.
Take `C=CC(=O)N1CCN2C(=O)c3c(-c4ccnn4C(C)C)nc(-c4c(O)cccc4F)c(Cl)c3OC[C@H]2C1` [Z77, (6aR)-8-acryloyl-4-chloro-3-(2-fluoro-6-hydroxyphenyl)-1-(1-isopropyl-1H-pyrazol-5-yl)-6,6a,7,8,9,10-hexahydro-12H-pyrazino[2,1-c]pyrido[3,4-f][1,4]oxazepin-12-one]: the IC50 in test [1] (setting [4]) was 365 nM; in test [2] (Homo sapiens, A549, 120 h), above 20000 nM; in test [3] (Homo sapiens, NCI-H358, 120 h) it was 157 nM.
`C=CC(=O)N1CCN2C(=O)c3c(N4CCN(C5COC5)CC4C)nc(-c4c(O)cccc4F)c(Cl)c3OC[C@H]2C1` (stereo partly drawn) [Z239, (6aR)-8-acryloyl-4-chloro-3-(2-fluoro-6-hydroxyphenyl)-1-(2-methyl-4-(oxetan-3-yl)piperazin-1-yl)-6,6a,7,8,9,10-hexahydro-12H-pyrazino[2,1-c]pyrido[3,4-f][1,4]oxazepin-12-one]: the 50% inhibitory concentration (IC50) in test [1] (setting [4]) came to 41.6 nM; in test [2] (Homo sapiens, A549, 120 h), 13800 nM; in test [3] (Homo sapiens, NCI-H358, 120 h) it was 22.9 nM.
Take `C=CC(=O)N1CCN2C(=O)c3c(N4CCSCC4)nc(-c4c(O)cccc4F)c(Cl)c3OC[C@H]2C1` [Z264, (6aR)-8-acryloyl-4-chloro-3-(2-fluoro-6-hydroxyphenyl)-1-thiomorpholino-6,6a,7,8,9,10-hexahydro-12H-pyrazino[2,1-c]pyrido[3,4-f][1,4]oxazepin-12-one]: the IC50 in test [1] (setting [4]) worked out at 98 nM; in test [2] (Homo sapiens, A549, 120 h), 9480 nM; in test [3] (Homo sapiens, NCI-H358, 120 h), 85 nM.
